Measured values published in the NIST ThermoML archive (doi:10.1021/je100679s).
Numbers after ± are expanded uncertainties.

Experiment: xn = mol fraction of the nth substance listed
Conditions: 101 kPa, Liquid; for electrical conductivity: DDS-307 conductivity meter

CCCCCCn1cc[n+](C)c1C.O=S(=O)([N-]S(=O)(=O)C(F)(F)F)C(F)(F)F + COC(=O)OC
Conditions	electrical conductivity [S/m]	mass density [kg/m3]
293.15 K, x1 = 0.0466	–	1120.02 ± 0.9
293.15 K, x1 = 0.0774	–	1145.97 ± 1
293.15 K, x1 = 0.1154	–	1173.26 ± 1.1
293.15 K, x1 = 0.1633	–	1201.7 ± 1.3
293.15 K, x1 = 0.2269	–	1231.14 ± 1.4
293.15 K, x1 = 0.3131	–	1261.37 ± 1.6
293.15 K, x1 = 0.4385	–	1292.48 ± 1.9
293.15 K, x1 = 0.6368	–	1324.48 ± 2.2
293.15 K, x1 = 0.7472	–	1337.22 ± 2.4
293.15 K, x1 = 1	–	1358.19 ± 2.9
298.15 K, x1 = 0.0466	0.34 ± 0.02	1113.88 ± 0.87
298.15 K, x1 = 0.0774	0.579 ± 0.035	1140.01 ± 0.99
298.15 K, x1 = 0.1154	0.755 ± 0.045	1167.46 ± 1.1
298.15 K, x1 = 0.1633	0.839 ± 0.051	1195.92 ± 1.2
298.15 K, x1 = 0.2269	0.813 ± 0.049	1225.5 ± 1.4
298.15 K, x1 = 0.3131	0.631 ± 0.038	1255.94 ± 1.6
298.15 K, x1 = 0.4385	0.509 ± 0.031	1287.18 ± 1.8
298.15 K, x1 = 0.6368	0.23 ± 0.014	1319.32 ± 2.2
298.15 K, x1 = 0.7472	0.164 ± 0.0099	1332.18 ± 2.4
298.15 K, x1 = 1	0.108 ± 0.0068	1353.11 ± 2.8
303.15 K, x1 = 0.0466	0.378 ± 0.023	1107.71 ± 0.85
303.15 K, x1 = 0.0774	0.649 ± 0.039	1134.13 ± 0.96
303.15 K, x1 = 0.1154	0.82 ± 0.049	1161.84 ± 1.1
303.15 K, x1 = 0.1633	0.893 ± 0.054	1190.53 ± 1.2
303.15 K, x1 = 0.2269	0.862 ± 0.052	1220.22 ± 1.4
303.15 K, x1 = 0.3131	0.689 ± 0.041	1250.93 ± 1.6
303.15 K, x1 = 0.4385	0.553 ± 0.033	1282.32 ± 1.8
303.15 K, x1 = 0.6368	0.296 ± 0.018	1314.7 ± 2.2
303.15 K, x1 = 0.7472	0.209 ± 0.013	1327.65 ± 2.4
303.15 K, x1 = 1	0.158 ± 0.0097	1348.71 ± 2.8
308.15 K, x1 = 0.0466	0.416 ± 0.025	1101.52 ± 0.83
308.15 K, x1 = 0.0774	0.718 ± 0.043	1128.2 ± 0.94
308.15 K, x1 = 0.1154	0.884 ± 0.053	1156.12 ± 1.1
308.15 K, x1 = 0.1633	0.947 ± 0.057	1185.04 ± 1.2
308.15 K, x1 = 0.2269	0.91 ± 0.055	1214.85 ± 1.4
308.15 K, x1 = 0.3131	0.751 ± 0.045	1245.85 ± 1.6
308.15 K, x1 = 0.4385	0.61 ± 0.037	1277.48 ± 1.8
308.15 K, x1 = 0.6368	0.361 ± 0.022	1310.14 ± 2.1
308.15 K, x1 = 0.7472	0.275 ± 0.017	1323.1 ± 2.3
308.15 K, x1 = 1	0.213 ± 0.013	1344.29 ± 2.8
313.15 K, x1 = 0.0466	0.454 ± 0.027	1096.1 ± 0.81
313.15 K, x1 = 0.0774	0.788 ± 0.047	1123 ± 0.93
313.15 K, x1 = 0.1154	0.949 ± 0.057	1151.09 ± 1.1
313.15 K, x1 = 0.1633	1 ± 0.06	1180.2 ± 1.2
313.15 K, x1 = 0.2269	0.959 ± 0.058	1210.16 ± 1.3
313.15 K, x1 = 0.3131	0.812 ± 0.049	1241.28 ± 1.5
313.15 K, x1 = 0.4385	0.667 ± 0.04	1272.94 ± 1.8
313.15 K, x1 = 0.6368	0.433 ± 0.026	1305.67 ± 2.1
313.15 K, x1 = 0.7472	0.35 ± 0.021	1318.62 ± 2.3
313.15 K, x1 = 1	0.271 ± 0.016	1339.88 ± 2.8
318.15 K, x1 = 0.0466	0.492 ± 0.03	1089.11 ± 0.79
318.15 K, x1 = 0.0774	0.857 ± 0.051	1116.3 ± 0.9
318.15 K, x1 = 0.1154	1.01 ± 0.061	1144.64 ± 1
318.15 K, x1 = 0.1633	1.05 ± 0.063	1174.05 ± 1.2
318.15 K, x1 = 0.2269	1.01 ± 0.06	1204.45 ± 1.3
318.15 K, x1 = 0.3131	0.876 ± 0.053	1235.85 ± 1.5
318.15 K, x1 = 0.4385	0.706 ± 0.042	1267.89 ± 1.8
318.15 K, x1 = 0.6368	0.492 ± 0.03	1300.91 ± 2.1
318.15 K, x1 = 0.7472	0.399 ± 0.024	1314.09 ± 2.3
318.15 K, x1 = 1	0.319 ± 0.019	1335.47 ± 2.7
323.15 K, x1 = 0.0466	0.53 ± 0.032	1082.85 ± 0.76
323.15 K, x1 = 0.0774	0.927 ± 0.056	1110.32 ± 0.88
323.15 K, x1 = 0.1154	1.08 ± 0.065	1138.89 ± 1
323.15 K, x1 = 0.1633	1.11 ± 0.067	1168.73 ± 1.1
323.15 K, x1 = 0.2269	1.05 ± 0.063	1199.16 ± 1.3
323.15 K, x1 = 0.3131	0.933 ± 0.056	1230.72 ± 1.5
323.15 K, x1 = 0.4385	0.782 ± 0.047	1263.01 ± 1.7
323.15 K, x1 = 0.6368	0.548 ± 0.033	1296.31 ± 2.1
323.15 K, x1 = 0.7472	0.469 ± 0.028	1309.51 ± 2.3
323.15 K, x1 = 1	0.369 ± 0.022	1331.06 ± 2.7
328.15 K, x1 = 0.0466	0.568 ± 0.034	1076.68 ± 0.74
328.15 K, x1 = 0.0774	0.996 ± 0.06	1104.42 ± 0.86
328.15 K, x1 = 0.1154	1.14 ± 0.069	1133.32 ± 0.98
328.15 K, x1 = 0.1633	1.16 ± 0.07	1163.27 ± 1.1
328.15 K, x1 = 0.2269	1.1 ± 0.066	1193.98 ± 1.3
328.15 K, x1 = 0.3131	0.998 ± 0.06	1225.63 ± 1.5
328.15 K, x1 = 0.4385	0.834 ± 0.05	1258.14 ± 1.7
328.15 K, x1 = 0.6368	0.623 ± 0.037	1291.79 ± 2.1
328.15 K, x1 = 0.7472	0.537 ± 0.032	1304.97 ± 2.2
328.15 K, x1 = 1	0.426 ± 0.026	1326.65 ± 2.7
333.15 K, x1 = 0.0466	0.606 ± 0.036	1070.28 ± 0.72
333.15 K, x1 = 0.0774	1.07 ± 0.064	1098.51 ± 0.84
333.15 K, x1 = 0.1154	1.21 ± 0.072	1127.61 ± 0.96
333.15 K, x1 = 0.1633	1.22 ± 0.073	1157.77 ± 1.1
333.15 K, x1 = 0.2269	1.15 ± 0.069	1188.58 ± 1.3
333.15 K, x1 = 0.3131	1.07 ± 0.064	1220.43 ± 1.5
333.15 K, x1 = 0.4385	0.915 ± 0.055	1253.16 ± 1.7
333.15 K, x1 = 0.6368	0.686 ± 0.041	1287.1 ± 2
333.15 K, x1 = 0.7472	0.605 ± 0.036	1300.47 ± 2.2
333.15 K, x1 = 1	0.48 ± 0.029	1322.24 ± 2.7
